Key:
Assay in all cases: relative viability (nuclei count vs DMSO), 5 days (fraction); higher = more cells survive
[1] = compound: CCC1=CN=CN=C1N2CCN(CC2)CC3=NC4=C(N3)C=C(C=C4)C(F)(F)F + N=C(N)NC(=N)NCCc1ccccc1 [Phenformin] (partner 250 µM)
Outline: (§1)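 Cells from lung cancer lines were seeded into 1536-well plates and, one day later, dosed by pin tool. Treatments were either a single drug or a fixed dose of an anchor drug with five library-drug doses (not always all listed) in √10 steps. After 5 days, nuclei were stained in a one-step fixation (final 0.05% Triton X-100, 1% formaldehyde, 1 ug/ml Hoechst) and counted on 4× images, and relative viability is the treated-to-vehicle nuclei ratio, as the median of duplicate plates.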

[2] = compound: CCC1=CN=CN=C1N2CCN(CC2)CC3=NC4=C(N3)C=C(C=C4)C(F)(F)F + C[C@@H](Oc1cc(-c2cnn(C3CCNCC3)c2)cnc1N)c1c(Cl)ccc(F)c1Cl [Crizotinib] (partner 1 µM)
Outline: as §1

[3] = compound: CCn1c(-c2nonc2N)nc2cnc(Oc3cccc(NC(=O)c4ccc(OCCN5CCOCC5)cc4)c3)cc21 + Cc1nc(Nc2ncc(C(=O)Nc3c(C)cccc3Cl)s2)cc(N2CCN(CCO)CC2)n1 [Dasatinib] (partner 0.075 µM)
Outline: as §1

Mirin + Bortezomib = compound: N=C1NC(=O)/C(=C/c2ccc(O)cc2)S1 [Mirin] + CC(C)C[C@H](NC(=O)[C@H](Cc1ccccc1)NC(=O)c1cnccn1)B(O)O [Bortezomib] (partner 0.002 µM)
Outline: as §1

Cell Line	relative viability ([1]; first compound 0.04 µM)	relative viability ([1]; first compound 0.1265 µM)	relative viability ([1]; first compound 0.4 µM)	relative viability ([1]; first compound 1.265 µM)	relative viability ([1]; first compound 4 µM)	relative viability ([2]; first compound 0.04 µM)	relative viability ([2]; first compound 0.1265 µM)	relative viability ([2]; first compound 0.4 µM)	relative viability ([2]; first compound 1.265 µM)	relative viability ([2]; first compound 4 µM)	relative viability ([3]; first compound 0.04 µM)	relative viability ([3]; first compound 0.1265 µM)	relative viability ([3]; first compound 0.4 µM)	relative viability ([3]; first compound 1.265 µM)	relative viability ([3]; first compound 4 µM)	relative viability (Mirin + Bortezomib; first compound 0.25 µM)	relative viability (Mirin + Bortezomib; first compound 0.7906 µM)	relative viability (Mirin + Bortezomib; first compound 2.5 µM)	relative viability (Mirin + Bortezomib; first compound 7.906 µM)	relative viability (Mirin + Bortezomib; first compound 25 µM)
201T	0.517	0.455	0.474	0.431	0.442	0.985	0.993	1.03	1.02	1.12	0.644	0.682	0.443	0.588	0.506	1.12	1.12	1.2	1.18	1.23
A549	0.178	0.143	0.191	0.161	0.164	0.734	0.801	0.816	0.829	0.827										
A-427	0.3	0.292	0.225	0.234	0.224	0.918	0.825	1.04	0.714	0.865	0.694	0.487	0.375	0.269	0.224	0.97		1.01	1.03	1.02
ABC-1	0.262	0.238	0.223	0.243	0.268	1.09	1.04	1.38	1.11	0.852	0.54	0.51	0.414	0.311	0.372	0.293	0.254	0.306	0.339	0.293
BEN	0.254	0.255	0.229	0.253	0.265	0.924	0.868	0.963	0.532	0.662	0.276	0.238	0.174	0.186	0.232	0.638	0.779	0.967	0.625	0.548
CAL-12T	0.551	0.616	0.626	0.548	0.643	0.629	0.621	0.805	0.808	1.12	0.39	0.43	0.267	0.276	0.157	0.921		0.967		1.43
COR-L23	0.387	0.411	0.473	0.409	0.521	0.58	0.621	0.66	0.694	0.975	0.47	0.336	0.173	0.164	0.121	1.1	1.08	1.03	1.06	0.968
COR-L 105	0.629	0.403	0.536	0.401	0.502	0.861	0.795	0.972	0.922	1.24	0.261	0.219	0.217	0.232	0.167	0.866	0.759	0.903	0.992	0.769
Calu-6						0.742	0.707	0.832	0.905	0.982						0.925	1.08	1.04	0.895	0.841
ChaGo-K-1	0.462	0.5	0.409	0.443	0.482		1.15	1.21	1.12	1.16	0.592	0.442	0.365	0.394	0.395	0.984		0.953	0.628	0.969
EBC-1						0.186	0.169	0.218	0.196	0.169						0.596	0.629	0.55	0.535	0.316
EKVX	0.25	0.213	0.235		0.22	1.22	0.728	0.915	0.873	1.07	0.565	0.277	0.434	0.457	0.427	1.05	0.979	1	1.03	1.04
EMC-BAC-2	0.515	0.506	0.523		0.557	0.779	0.734	0.77	0.889	1.03	0.305	0.244	0.134	0.161	0.154	1.11	1.08	1.07	1.05	1.11
EPLC-272H	0.308	0.333	0.299	0.325	0.337	0.81	0.867	0.89	0.959	1.19	0.513	0.326	0.159	0.263	0.227	0.962		1.04	0.714	0.826
H3255	0.398	0.42	0.347	0.352	0.392	0.864	0.888	0.794	0.757	0.941	0.375	0.367	0.331	0.341	0.291	0.778	0.725	0.837	0.698	0.769
HARA	0.464	0.368	0.305		0.472	1.06	0.972	1.01	1.03	1.18	0.243	0.213	0.124	0.0816	0.074	1.09	1.11	1.17	1.1	1.17
HCC-15	0.487	0.46	0.465	0.445	0.434	0.75	0.78	0.819	0.946	1.06	0.618	0.464	0.349		0.395	1.02	0.928	1.03	0.893	0.949
HCC-44	0.176	0.208	0.266	0.28	0.247	0.83	0.774	0.874	0.762	0.843						0.876	0.955	0.846	0.856	1.13
